This note sets out measurements from ChEMBL document CHEMBL6083187, “Current status of the small molecule anti-HIV drugs in the pipeline or recently approved” (Bioorg Med Chem, 2024).

Molecules are shown by their SMILES.

Data set [1] concerns Human immunodeficiency virus 2. As to the kind of experiment: Antiviral activity against HIV-2 ROD infected in human MT4 cells assessed as virus-induced cytopathic effect incubated for 5 days by MTT assay. Type of data set: functional, organism-based. The following applies: Human immunodeficiency virus 2, ROD, MT4, 120 h.
In data set [2] the test system is Human immunodeficiency virus 1. As to the kind of experiment: Antiviral activity against HIV-1 NL4-3 infected in human MT2 cells assessed as reduction in viral replication. Particulars: Human immunodeficiency virus 1, NL4-3, MT2. Format: functional, organism-based.
Data set [3] is described as follows: Inhibition of Influenza A virus RdRp.
The target of data set [4] is T1, Human immunodeficiency virus type 1 reverse transcriptase (Human immunodeficiency virus 1, UniProt Q72547). As to the kind of experiment: Inhibition of HIV-1 reverse transcriptase.
For data set [5], the target named is T2, Human immunodeficiency virus type 1 integrase (Human immunodeficiency virus 1, UniProt Q7ZJM1). The data set is described as follows: Inhibition of HIV-1 integrase strand transfer activity.
T2 sequence (Q7ZJM1 whole entry): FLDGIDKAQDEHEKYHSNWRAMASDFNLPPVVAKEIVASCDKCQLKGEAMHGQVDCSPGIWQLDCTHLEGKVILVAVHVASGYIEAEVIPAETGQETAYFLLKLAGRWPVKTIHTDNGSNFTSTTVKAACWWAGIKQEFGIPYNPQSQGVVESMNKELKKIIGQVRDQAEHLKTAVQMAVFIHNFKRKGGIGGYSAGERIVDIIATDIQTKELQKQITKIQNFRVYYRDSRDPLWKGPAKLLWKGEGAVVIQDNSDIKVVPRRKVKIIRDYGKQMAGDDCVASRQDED
In data set [6] the target is Structural capsid protein (Human immunodeficiency virus 1, UniProt Q76129). As to the kind of experiment: Inhibition of HIV-1 NL4-3 monomeric capsid protein.
Chain of Structural capsid protein (Q76129 whole entry): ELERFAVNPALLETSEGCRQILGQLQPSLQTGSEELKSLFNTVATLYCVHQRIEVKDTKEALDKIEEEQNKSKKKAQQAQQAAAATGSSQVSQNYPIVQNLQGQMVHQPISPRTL
For data set [7], the target named is Human immunodeficiency virus type 1 protease (Human immunodeficiency virus 1, UniProt Q72874). The data set is described as follows: Inhibition of HIV-1 protease by fluorescence resonance energy transfer analysis.
The target in data set [8] is T2, Human immunodeficiency virus type 1 integrase. The data set is described as follows: Inhibition of HIV-1 NL4-3 integrase.
For data set [9] the target is unchanged. As to the kind of experiment: Inhibition of HIV-1 BAL integrase strand transfer activity.
Data set [10] is described as follows: Cmax in human at 40 mg, po. Format: ADME. The following applies: in vivo.
Data set [11] in a line: Cmax in human at 20 mg, po. Type of data set: ADME. Particulars: in vivo.
Data set [12] can be described thus: Half life in human at 20 mg by LC-MS/MS analysis. Type of data set: ADME. Particulars: in vivo.
Data set [13] can be described thus: Tmax in human at 20 mg, po. The following applies: in vivo. Type of data set: ADME.
Data set [14] is described as follows: Half life in human at 40 mg by LC-MS/MS analysis. Format: ADME. The following applies: in vivo.
Data set [15] in a line: Tmax in human at 40 mg, po. Format: ADME. The following applies: in vivo.
Data set [16] has as its system Human immunodeficiency virus 1. The data set is described as follows: Antiviral activity against HIV1 subtype A clinical isolate UG275. Type of data set: functional, organism-based. The following applies: Human immunodeficiency virus 1, UG275.
The test system of data set [17] is Human immunodeficiency virus 1. The data set is described as follows: Antiviral activity against HIV-1. Type of data set: functional, organism-based.
Data set [18] concerns the target T1, Human immunodeficiency virus type 1 reverse transcriptase. The data set is described as follows: Inhibition of wild type HIV-1 reverse transcriptase.
Data set [19] shares this target. The data set is described as follows: Inhibition of HIV-1 NL4-3 reverse transcriptase.

Take `C#C[C@]1(CO)C=C[C@@H](n2cc(C)c(=O)[nH]c2=O)O1`: the EC50 (as a rule, the concentration at which the effect is half-maximal) in data set [1] was found to be 30 nM; in data set [2], 450 nM.
For `C=C(C)[C@@H]1CC[C@]2(NCCN3CCS(=O)(=O)CC3)CC[C@]3(C)[C@H](CC[C@@H]4[C@@]5(C)CC=C(c6ccc(C(=O)O)cc6)C(C)(C)[C@@H]5CC[C@]43C)[C@@H]12` [BMS-955176], the IC50 – broadly, the midpoint of a concentration-inhibition curve – in [3] was > 100000 nM; in [4], > 50000 nM; in [5], > 15000 nM; in data set [6], > 50000 nM; in data set [7], > 10000 nM.
Consider `C[C@H]1CO[C@@H]2Cn3cc(C(=O)NCc4ccc(F)cc4F)c(=O)c(O)c3C(=O)N12` [CABOTEGRAVIR], for which the IC50 in data set [8] was 0.34 nM; in [9], 0.22 nM.
Regarding `CCC(=O)NS(=O)(=O)c1ccc(NC(=O)Cc2ccc(Br)c(Oc3cc(Cl)cc(C#N)c3)c2F)c(Cl)c1` [ELSULFAVIRINE], the peak concentration (Cmax) (usually the highest concentration seen after dosing) is 10.8 ng/mL in data set [10] and 7.5 ng/mL in data set [11]. Further, the values for the half-life in [12] and in data set [14] were 1.7 h and 2.6 h, respectively. Further, the Tmax (in general, the time at which the peak concentration occurs) is 1.1 h in data set [13] and 1.9 h in data set [15].
With `C=C(C)[C@@H]1CC[C@]2(NCCN3CCS(=O)(=O)CC3)CC[C@]3(C)[C@H](CC[C@@H]4[C@@]5(C)CC=C(C6=CC[C@@](CF)(C(=O)O)CC6)C(C)(C)[C@@H]5CC[C@]43C)[C@@H]12` [FIPRAVIRIMAT], the values for the half-maximal effective concentration (EC50) in data set [16] and in [17] were 3.5 nM and 9 nM, respectively.
Consider `Cc1cc(/C=C/C#N)cc(C)c1Nc1ccnc(Nc2ccc(C#N)cc2)n1` [RILPIVIRINE], for which the IC50 is 0.24 nM in data set [18] and < 2 nM in data set [19].
